From patent US11185527B2, “Methods and compositions relating to steroid hormone receptor-dependent cancers” (Wayne State University, priority 2017, dated 2021)
Values joined by “and” are separate entries in the source; they are usually repeats but may differ in a detail not shown here. Equal entries are not always repeated.

What was measured:
22Rv1 cells = assay: Cell monolayer growth assay (MTT); type: cell-based, human; details: enzalutamide up to 20 uM
Method: Twenty four hours after plating the 22Rv1 cells, they were treated with the indicated concentrations of KCI807 (FIG. 4C) or with the indicated concentrations of enzalutamide (ENZ) (FIG. 4D).
Twenty four hours after plating the cells, they were treated with the indicated concentrations of the compound.
FIG. 16D is a graph showing the effect of 5′-Fluoro-5,3′-Dihydroxyflavone at various concentrations on growth of 22Rv1 cells.
Cells were trypsinized and 3000-4000 cells/well were seeded in 96-well plates coated with poly-D-lysine. The cells were seeded in phenol red-free medium supplemented with 10% FBS, 100 units/ml penicillin, 100 μg/ml streptomycin, 2 mM L-glutamine mixture and sodium pyruvate (1 mM) for LNCaP cells and phenol red-free medium supplemented with 10% FBS, 100 units/ml penicillin, 100 μg/ml streptomycin and 2 mM L-glutamine mixture for VCaP, 22Rv1, DU145, HeLa, HEK293 and H1650 cells. The cells were grown at 37° C. in 5% CO2. Twenty four hours after seeding in the 96-well plates, the cells were treated with the indicated concentration of KCI807 or DMSO (vehicle). The cells were re-treated on Day 3 by removing half the volume of medium and replacing it with fresh treated medium. Cell viability was determined using the MTT assay from day zero until day five. MTT (10 μL, 5 mg/mL) was added to each well and incubated for 2h at 37° C. The formazan crystal sediments were dissolved in 100 μL of DMSO, and the absorbance at 570 nm was measured using the BioTek Synergy 2 Microplate Reader (BioTek, Winooski, Vt.). The assay was conducted in sextuplicate wells and values were normalized to day zero.

[1] = Metabolism in pooled human liver microsomes (HLM) with or without NADPH; type: in vitro ADME
Method: BD UltraPool human liver microsomes (HLM) 150 and the NAPDH regenerating system solution A and B were obtained from Corning Inc. Pooled HLM were used to determine percentage of metabolism of 5,3′-Dihydroxyflavone and 5,3-Dihydroxy-4′-methylflavone. The compounds (20 μM) were co-incubated with HLM (0.05 mg/ml) in the presence or absence of NAPDH for 30 minutes in a 37° C. water bath. At the end of the microsome reaction, the reaction was quenched with 1000 μl ethyl acetate. The mixture was vortexed and centrifuged at 13,000 rpm for 15 minutes, the supernatant was then subjected to high-performance liquid chromatography with tandem mass spectrometry ([…]) analysis.

[2] = tested on: ELK1-dependent promoter activation by AR; assay: Primary screening assay: luciferase reporter in recombinant HeLa cells (Gal4-TATA-Luc, Gal4-ELK1, AR) treated with testosterone; type: cell-based, human; details: for inhibition of ELK1-dependent promoter activation by AR (in words): testosterone-treated recombinant HeLa cells, luciferase
Text: FIG. 6A is a schematic diagram of the reporter system for the primary screening assay. Recombinant HeLa cells used in this assay harbor the Gal4-TATA-Luc promoter-reporter, and stably express a Gal4-ELK1 fusion protein as well as the androgen receptor (AR). Gal4-ELK1 is bound to the Gal4 elements in the promoter. In the absence of testosterone (small circle), AR is localized in the cytoplasm. When testosterone is present it binds to AR causing AR to translocate to the nucleus where it then binds to Gal4-ELK1 and activates the downstream luciferase reporter.
HeLa HLR cells obtained from Dr. Johann Hofman (Innsbruck Medical University), which were originally designed to serve as a cell-based assay system to measure modulation of MAPK activity. HeLa HLR cells have a stably integrated minimal promoter-luciferase reporter containing five upstream Gal4 elements (Gal4-TATA-Luc) and also constitutively express a Gal4-ELK1 fusion protein in which the Gal4 DNA binding domain is substituted for the ETS DNA binding domain of ELK1. In order to produce recombinant cell lines for high throughput screening and counter screening of small molecule libraries, HeLa HLR were stably transduced with a vector expressing the full-length AR. A sequence encoding the full length AR (SEQ ID NO:9) was subcloned from the pCMV expression vector (Origene) into the pCDH-CMV-MCS-EF1-Puro cDNA Cloning and Expression Vector (System Biosciences) at NheI (upstream) and BamHI (downstream) sites. The lentiviral vector expressing full length AR was then packaged in lentivirus and the HeLa HLR cells were infected as described below in the sub-section “Lentivirus-mediated-Transduction.” After 72 hours (h) of infection, 2 ug/mL of puromycin was added to the culture medium to select for the transduced cells. The cells were plated at low density for colony formation (20-40 colonies) in a 100 mm dish. Clonal cells were isolated using cloning cylinders from CORNING (Cat. #3166-8). The selected clones were further expanded and then tested for luciferase induction by testosterone. The clone that gave the greatest luciferase signal to noise ratio in response to testosterone treatment was then chosen for use in the primary screening assay for high throughput small molecule screening.
For high throughput screening, recombinant primary screening cells were first depleted of hormone by growing them for 24h in medium in which the serum used was heat-inactivated and charcoal-stripped. The cells were then plated in 384-well white flat bottom plates (5,000 cells/well) (Corning Product #3570) using a Multidrop (Thermo Fisher Scientific, Waltham, Mass.). The plates were then incubated for 24h prior to adding test compounds. The following day test compounds from the LOPAC, Prestwick, or Maybridge Hitfinder libraries were added precisely in a 0.2 μL volume in the test wells using a Biomek FX liquid handler (Beckman Coutler, Break, Calif.) to achieve final media concentration of 10 μM of each test compound. Using the Multidrop (ThermoLab Systems, Helsinki, Finland), testosterone was added in addition to the test compounds to achieve a final media concentration of 10 nM. As the test compounds were re-constituted from powder stocks using dimethyl sulfoxide (DMSO) as the solvent, the final media concentration of DMSO was 0.4% v/v. For the assay negative control on each plate, one row of wells on each plate contained 10 nM testosterone and 0.4% v/v of DMSO. For the assay positive control on each plate, one row of wells on each plate contained 10 nM testosterone and 10 uM enzalutamide dissolved in DMSO (0.4% v/v of DMSO in the wells). The plates were incubated for 24h at 37° C. in 5% CO2. The medium was then aspirated leaving a residual volume 10 μl using an Elx 405-plate washer (Bio Tek U.S.). Then, 10 uL of the assay reagent Bright-Glo (Promega Corp., Madison Wis.) was added to each well. […]

[3] = tested on: ARE-dependent promoter activation by AR; assay: Counter screening assay: ARE-luciferase reporter in recombinant HeLa cells expressing AR; type: cell-based, human; details: testosterone-treated recombinant HeLa cells
Text: FIG. 6B is a schematic diagram of the reporter system for the counter screening assay. Recombinant HeLa cells used in this assay are identical to the primary screening cells except for the absence of Gal4-ELK1 and substitution of the Gal4 elements in the promoter with a canonical ARE. In this case, testosterone causes cytosolic AR to translocate to the nucleus and bind to the ARE in the promoter resulting in activation of the luciferase reporter.
The cells generated for counter screening, are HeLa cells stably transduced with a lentiviral plasmid construct containing a minimal promoter-luciferase reporter and an upstream androgen response element (ARE) sequence. These HeLa cells were also transduced with a lentiviral expression plasmid encoding the full-length AR. These lentiviral constructs were made as follows. Custom synthesized PCR primers were used to amplify and clone the ARE sequence from a pG5luc plasmid construct containing an ARE sequence element into the pGreenFire1 ™-mCMV-EF1-Neo (Plasmid) at SpeI (upstream) and BamHI (downstream) sites. pG5luc Vector is well known and the complete sequence has NCBI accession #AF264724. The ARE containing pG5luc plasmid is described in detail in Patki et al., 2013, J Biol Chem, 288:11047-11065. The lentiviral vector expressing ARE-luciferase reporter was then packaged in lentivirus and parental HeLa cells were infected as described below under the heading “Lentivirus-mediated-Transduction.” After 72h of infection, 400 ug/mL of Geneticin was added to the culture medium to select for the transduced cells. These cells were then infected with the lentivirus containing the full length AR expression plasmid described above. After 72h of infection, 2 ug/mL of Puromycin was added to the culture medium to select for the transduced cells. Clonal cells harboring both the ARE-promoter-luciferase reporter and also stably expressing AR were then isolated using cloning cylinders as described above. The selected clones were further expanded and then tested for luciferase induction by testosterone. The clone that gave the greatest luciferase signal to noise ratio in response to testosterone treatment was then chosen for use in the counter screening assay for high throughput small molecule screening. All of the plasmid constructs generated above were sequenced to verify DNA sequences before, the constructs were used.
For high throughput screening, recombinant primary screening cells were first depleted of hormone by growing them for 24h in medium in which the serum used was heat-inactivated and charcoal-stripped. The cells were then plated in 384-well white flat bottom plates (5,000 cells/well) (Corning Product #3570) using a Multidrop (Thermo Fisher Scientific, Waltham, Mass.). […]

AR negative cell lines = assay: Toxicity to AR negative cell lines; details: at low doses, concentration range of 1 uM-10 uM
[4] = HLM 0.05 mg/ml, 30 minutes, 37° C.

Cc1ccc(-c2cc(=O)c3c(O)cccc3o2)cc1O [4′-methyl-5,3′-dihydroxyflavone, 5,3′-dihydroxy-4′-methylflavone]
growth inhibition of 22Rv1 cells (22Rv1 cells): retained its ability to inhibit growth | compound concentration after HLM incubation, Control (absence of NADPH), replicate [1, 4]: 1.789 µM and 1.770 µM and 1.757 µM and 1.773 µM and 1.776 µM and 1.782 µM | compound concentration after HLM incubation, NADPH treated, replicate [1, 4]: 1.491 µM and 1.513 µM and 1.639 µM and 1.651 µM and 1.498 µM and 1.501 µM | mean compound concentration, Control (absence of NADPH) [1, 4]: 1.774 µM | mean compound concentration, NADPH treated [1, 4]: 1.549 µM | percentage metabolized (%) ([1]; HLM 0.05 mg/ml, NADPH, 30 minutes, 37° C.): 12.7% | reduction of metabolism in human liver microsomes relative to 5,3′-dihydroxyflavone ([1]; methyl group substitution on the 4′ carbon): 50%

COc1c(-c2ccc(O)c(O)c2)oc2cc(O)cc(O)c2c1=O [5,7,3′,4′-tetrahydroxy-3-methoxyflavone]
inhibition of ELK1-dependent promoter activation by AR (in words) [2]: lack of inhibition

O=c1cc(-c2ccc(O)c(O)c2)oc2cc(O)cc(O)c12 [Hit1, 5,7,3′,4′-tetrahydroxyflavone]
inhibition at 10 µM ([2]; Homo sapiens, HeLa, compound concentration of 10 μM, read-out: inhibition in the primary screen): 80 to 100% | inhibition of ARE-dependent promoter activation by AR (in words) [3]: virtual absence of an effect

O=c1cc(-c2cc(O)cc(F)c2)oc2cc(F)cc(O)c12 [5′,7-diflouro-5,3′-dihydroxyflavone]
toxicity to AR negative cell lines (AR negative cell lines): toxic | inhibition of ELK1-dependent promoter activation by AR (in words) [2]: inhibited | inhibition of ARE-dependent promoter activation by AR (in words) [3]: inhibited

O=c1cc(-c2cccc(O)c2)oc2cc(F)cc(O)c12 [7-Fluoro-5,3′-dihydroxyflavone]
inhibition of ELK1-dependent promoter activation by AR (in words) [2]: inhibited | inhibition of ARE-dependent promoter activation by AR (in words) [3]: inhibited
